From patent publication US11986532B2 (Arvinas Operations, Inc., priority 2021, dated 2024)
Like-named read-outs stand apart in the source and are kept apart here.

Target: T1, BCL6 (Homo sapiens, UniProt P41182)
T1 construct: endogenous in cells; host or cells: T47D breast cancer epithelial cells
Assay: Immunofluorescence protocol for high content imaging of BCL6 (degradation) in T47D cells, 3 days compound treatment
Assay type: cell-based
Settings: for Dmax: read-out: Mean Dmax (%)** category; for DC50: read-out: Mean DC50 (nM)* category
In short: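 Read-out: high-content imaging of anti-BCL6 immunofluorescence (Alexa-488 secondary) with CellMask and Hoechst counterstains, 10×, 4 fields/well. Cells had 3 days of compound exposure at 37° C, 5% CO2, 11-point 3-fold series from a final top of 0.1 or 1 μM.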

[1] = T47D cells, 3 days compound treatment

| Compound | Dmax (T47D) | DC50 | DC50 [1] | Dmax [1] |
| --- | --- | --- | --- | --- |
| CNC(=O)COc1cc2cc(Nc3nc(N4CCC(O[C@H]5C[C@H](N6CCN(c7cc8c(cc7Cl)C(=O)N([C@H]7CCC(=O)NC7=O)C8)[C@H](C)C6)C5)CC4)ncc3Cl)ccc2n(C(C)C)c1=O [Compound 269, 2-({6-[(5-chloro-2-{4-[(1r,3r)-3-[(3R)-4-{6-chloro-2-[(3S)-2,6-dioxopiperidin-3-yl]-1-oxo-2,3-dihydro-1H-isoindol-5-yl}-3-methylpiperazin-1-yl]cyclobutoxy]piperidin-1-yl}pyrimidin-4-yl)amino]-2-oxo-1-(propan-2-yl)-1,2-dihydroquinolin-3-yl}oxy)-N-methylacetamide] | ≥ 70% | < 10 nM | – | – |
| CNC(=O)COc1cc2cc(Nc3nc(N4CCC(CN5CCC6(CC5)CC5(CN(c7ccc8c(c7)C(=O)N(C7CCC(=O)NC7=O)C8=O)C5)C6)CC4)ncc3Cl)ccc2n(C(C)C)c1=O (stereo not drawn) [Compound 373, 2-{[6-({5-chloro-2-[4-({2-[2-(2,6-dioxopiperidin-3-yl)-1,3-dioxo-2,3-dihydro-1H-isoindol-5-yl]-2,9-diazadispiro[3.1.5^6.1^4]dodecan-9-yl}methyl)piperidin-1-yl]pyrimidin-4-yl}amino)-2-oxo-1-(propan-2-yl)-1,2-dihydroquinolin-3-yl]oxy}-N-methylacetamide] | ≥ 70% | < 10 nM | – | – |
| CCn1c(=O)c(OCC(=O)NC)cc2cc(Nc3nc(N4CCC(O[C@H]5C[C@H](N6CCC(c7ccc8c(c7)C(=O)N(C7CCC(=O)NC7=O)C8=O)CC6)C5)CC4)ncc3Cl)ccc21 (stereo partly drawn) [Compound 5, 2-[[6-[[5-chloro-2-[4-[3-[4-[2-(2,6-dioxo-3-piperidyl)-1,3-dioxo-isoindolin-5-yl]-1-piperidyl]cyclobutoxy]-1-piperidyl]pyrimidin-4-yl]amino]-1-ethyl-2-oxo-3-quinolyl]oxy]-N-methyl-acetamide] | – | – | < 10 nM | ≥ 70% |
| CC[C@H]1CN([C@H]2C[C@H](OC3CCN(c4ncc(Cl)c(Nc5ccc6c(c5)cc(OCC(=O)NC)c(=O)n6C(C)C)n4)CC3)C2)CCN1c1ccc2c(c1Cl)CN(C1CCC(=O)NC1=O)C2=O (stereo partly drawn) [Compound 196, 2-({6-[(5-chloro-2-{4-[(1r,3r)-3-[(3S)-4-[4-chloro-2-(2,6-dioxopiperidin-3-yl)-1-oxo-2,3-dihydro-1H-isoindol-5-yl]-3-ethylpiperazin-1-yl]cyclobutoxy]piperidin-1-yl}pyrimidin-4-yl)amino]-2-oxo-1-(propan-2-yl)-1,2-dihydroquinolin-3-yl}oxy)-N-methylacetamide] | – | – | < 10 nM | ≥ 70% |
| CNC(=O)COc1cc2cc(Nc3cc(N4CCC(CN5CCC6(CC5)CN(c5ccc7c(c5)C(=O)N(C5CCC(=O)NC5=O)C7=O)C6)CC4)ncc3Cl)ccc2n(C(C)C)c1=O (stereo not drawn) [Compound 215, 2-{[6-({5-chloro-2-[4-({2-[2-(2,6-dioxopiperidin-3-yl)-1,3-dioxoisoindol-5-yl]-2,7-diazaspiro[3.5]nonan-7-yl}methyl)piperidin-1-yl]pyridin-4-yl}amino)-1-isopropyl-2-oxoquinolin-3-yl]oxy}-N-methylacetamide] | 50 to 70% | 10 to 50 nM | – | – |
| CNC(=O)COc1cc2cc(Nc3nc(N4CCC(OC5CN([C@H]6CC[C@@H](c7ccc8c(c7)CN(C7CCC(=O)NC7=O)C8=O)CC6)C5)CC4)ncc3Cl)ccc2n(C(C)C)c1=O (single isomer, unassigned) [Compound 166, 2-[[6-[[5-chloro-2-[4-[1-[4-[2-(2,6-dioxo-3-piperidyl)-1-oxo-isoindolin-5-yl]cyclohexyl]azetidin-3-yl]oxy-1-piperidyl]pyrimidin-4-yl]amino]-1-isopropyl-2-oxo-3-quinolyl]oxy]-N-methyl-acetamide] | – | – | < 10 nM | 50 to 70% |
| CNC(=O)COc1cc2cc(Nc3nc(N4CCC(F)(CN5CC6(CCN(c7cccc8c7CN(C7CCC(=O)NC7=O)C8=O)CC6)C5)CC4)ncc3Cl)ccc2n(C(C)C)c1=O (stereo not drawn) [Compound 99] | – | – | < 10 nM | 50 to 70% |
| CNC(=O)COc1cc2cc(Nc3nc(N4CCC(O[C@H]5C[C@H](N6CCC(c7cc8c(cc7F)C(=O)N(C7CCC(=O)NC7=O)C8)CC6)C5)CC4)ncc3Cl)ccc2n(C(C)C)c1=O (stereo partly drawn) [Compound 79, 2-({6-[(5-chloro-2-{4-[(1r,3r)-3-{4-[2-(2,6-dioxopiperidin-3-yl)-6-fluoro-1-oxo-2,3-dihydro-1H-isoindol-5-yl]piperidin-1-yl}cyclobutoxy]piperidin-1-yl}pyrimidin-4-yl)amino]-2-oxo-1-(propan-2-yl)-1,2-dihydroquinolin-3-yl}oxy)-N-methylacetamide] | – | – | < 10 nM | 50 to 70% |
| CNC(=O)COc1cc2cc(Nc3nc(N4CCC(N5CCC6(CN(CC7CCN(c8ccc9c(c8)C(=O)N(C8CCC(=O)NC8=O)C9=O)CC7)C6)C5)CC4)ncc3Cl)ccc2n(C(C)C)c1=O (stereo not drawn) [Compound 228, 2-({6-[(5-chloro-2-{4-[2-({1-[2-(2,6-dioxopiperidin-3-yl)-1,3-dioxo-2,3-dihydro-1H-isoindol-5-yl]piperidin-4-yl}methyl)-2,6-diazaspiro[3.4]octan-6-yl]piperidin-1-yl}pyrimidin-4-yl)amino]-2-oxo-1-(propan-2-yl)-1,2-dihydroquinolin-3-yl}oxy)-N-methylacetamide] | 50 to 70% | 10 to 50 nM | – | – |
| CNC(=O)COc1cc2cc(Nc3nc(N4CCC(F)(CN5CC6(CCN(c7ccc8c(c7)CN(C7CCC(=O)NC7=O)C8=O)CC6)C5)CC4)ncc3Cl)ccc2n(C(C)C)c1=O (stereo not drawn) [Compound 122, 2-{[6-({5-chloro-2-[4-({7-[2-(2,6-dioxopiperidin-3-yl)-1-oxo-2,3-dihydro-1H-isoindol-5-yl]-2,7-diazaspiro[3.5]nonan-2-yl}methyl)-4-fluoropiperidin-1-yl]pyrimidin-4-yl}amino)-2-oxo-1-(propan-2-yl)-1,2-dihydroquinolin-3-yl]oxy}-N-methylacetamide] | – | – | < 10 nM | 50 to 70% |
| CNC(=O)COc1cc2cc(Nc3nc(N4CCC(OC5CCC6(CC5)CN(c5ccc(OC)c7c5CN(C5CCC(=O)NC5=O)C7=O)C6)CC4)ncc3Cl)ccc2n(C(C)C)c1=O (stereo not drawn) [Compound 304, 2-{[6-({5-chloro-2-[4-({2-[2-(2,6-dioxopiperidin-3-yl)-7-methoxy-1-oxo-2,3-dihydro-1H-isoindol-4-yl]-2-azaspiro[3.5]nonan-7-yl}oxy)piperidin-1-yl]pyrimidin-4-yl}amino)-2-oxo-1-(propan-2-yl)-1,2-dihydroquinolin-3-yl]oxy}-N-methylacetamide] | 50 to 70% | < 10 nM | – | – |
| CNC(=O)COc1cc2c(F)c(Nc3nc(N4CCC(CN5CCC6(CC5)CN(c5ccc7c(c5)C(=O)N(C5CCC(=O)NC5=O)C7=O)C6(C)C)CC4)ncc3Cl)ccc2n(C(C)C)c1=O (stereo not drawn) [Compound 375, 2-{[6-({5-chloro-2-[4-({2-[2-(2,6-dioxopiperidin-3-yl)-1,3-dioxo-2,3-dihydro-1H-isoindol-5-yl]-1,1-dimethyl-2,7-diazaspiro[3.5]nonan-7-yl}methyl)piperidin-1-yl]pyrimidin-4-yl}amino)-5-fluoro-2-oxo-1-(propan-2-yl)-1,2-dihydroquinolin-3-yl]oxy}-N-methylacetamide] | ≥ 70% | < 10 nM | – | – |
